Laboratory results as given in ChEMBL document CHEMBL2424615, “Design, synthesis, and characterization of novel tetrahydropyran-based bacterial topoisomerase inhibitors with potent anti-gram-positive activity” (J Med Chem, 2013).

What was measured:
[1] = target: DNA gyrase (Staphylococcus aureus, UniProt P0A0K8+P20831); assay: Inhibition of wild type Staphylococcus aureus DNA gyrase subunit 2GyrA/2GyrB assessed as pBR322 supercoiling after 1 hr; assay type: protein-complex assay
[2] = test system: Escherichia coli; assay: Antibacterial activity against wild type Escherichia coli ATCC 25922 assessed as growth inhibition by broth microdilution method; assay type: functional
[3] = test system: Pseudomonas aeruginosa; assay: Antibacterial activity against wild type Pseudomonas aeruginosa ATCC 27853 assessed as growth inhibition by broth microdilution method; assay type: functional
[4] = test system: Streptococcus pneumoniae; assay: Antibacterial activity against wild type Streptococcus pneumoniae ATCC 49619 assessed as growth inhibition by broth microdilution method; assay type: functional
[5] = test system: Enterococcus faecium; assay: Antibacterial activity against vancomycin-resistant Enterococcus faecium A-949 assessed as growth inhibition by broth microdilution method; assay type: functional
[6] = test system: Staphylococcus aureus; assay: Antibacterial activity against NXL-101-resistant Staphylococcus aureus harboring DNA gyrase D83N mutant assessed as growth inhibition by broth microdilution method; assay type: functional
[7] = test system: Staphylococcus aureus; assay: Antibacterial activity against methicillin and quinolone-resistant Staphylococcus aureus A-798 assessed as growth inhibition by broth microdilution method; assay type: functional
[8] = test system: Staphylococcus aureus; assay: Antibacterial activity against wild type Staphylococcus aureus ATCC 29213 assessed as growth inhibition by broth microdilution method; assay type: functional
[9] = Inhibition of wild type Escherichia coli ATCC 25922 DNA gyrase subunit 2GyrA/2GyrB assessed as pBR322 supercoiling after 1 hr
[10] = target: DNA gyrase subunit A (Staphylococcus aureus, UniProt P20831, D83N); assay: Inhibition of NXL-101-resistant Staphylococcus aureus DNA gyrase D83N mutant assessed as pBR322 supercoiling after 1 hr
[11] = target: DNA gyrase subunit A (Staphylococcus aureus, UniProt P20831, S84L); assay: Inhibition of quinolone-resistant Staphylococcus aureus A-798 DNA gyrase S84L mutant assessed as pBR322 supercoiling after 1 hr
[12] = Inhibition of wild type Escherichia coli ATCC 25922 DNA topoisomerase-4 subunit 2ParC/2ParE assessed as pBR322 relaxation after 1 hr
[13] = target: Topoisomerase IV (Staphylococcus aureus, UniProt P0C1S7+P0C1U9); assay: Inhibition of wild type Staphylococcus aureus ATCC 29213 topoisomerase-4 subunit 2GrlA/2GrlB assessed as pBR322 relaxation after 1 hr; assay type: protein-complex assay

| Compound | IC50 [1] | MIC [2] | MIC [3] | MIC [4] | MIC [5] | MIC [6] | MIC [7] | MIC [8] | IC50 [9] | IC50 [10] | IC50 [11] | IC50 [12] | IC50 [13] |
| --- | --- | --- | --- | --- | --- | --- | --- | --- | --- | --- | --- | --- | --- |
| COc1ccc2ncc(F)c([C@@H](O)CC[C@@H]3CCN(CCSc4cccs4)C[C@@H]3C(=O)O)c2c1 | 0.125 µM | > 8 µg/mL | > 8 µg/mL | 1 µg/mL | 1 µg/mL | > 8 µg/mL | 0.25 µg/mL | 0.125 µg/mL | 32 µM | 128 µM | 0.125 µM | 2 µM | 128 µM |
| N#Cc1ccc2ccc(=O)n(CCN3CC[C@H](NCc4cc5c(cn4)OCCO5)[C@H](F)C3)c2c1 | 0.03 µM | 8 µg/mL | > 8 µg/mL | 0.25 µg/mL | 0.5 µg/mL | 1 µg/mL | 0.015 µg/mL | 0.015 µg/mL | 8 µM | 32 µM | 0.03 µM | 0.125 µM | 8 µM |
